The text below walks through data of ChEMBL document CHEMBL1132355, “Novel arylpyrazino[2,3-c][1,2,6]thiadiazine 2,2-dioxides as platelet aggregation inhibitors. 2. Optimization by quantitative structure-activity relationships” (J Med Chem, 1999).

The assay is described as follows: Inhibition of platelet aggregation (rabbit platelet-rich plasma),induced by arachidonic acid, (100% inhibitory response). The conditions noted are these: Oryctolagus cuniculus.
For the compound `CN1c2nc(-c3ccccn3)c(-c3ccccn3)nc2C(N)=NS1(=O)=O`, the EC100 was 3 µg/mL. `CCN1c2ncc(-c3ccccc3)nc2C(N)=NS1(=O)=O` yielded an EC100 of 1 µg/mL.

Consider `CN1c2nc(-c3ccco3)c(-c3ccco3)nc2C(N)=NS1(=O)=O`, for which the EC100 was 1 µg/mL.

Regarding `CCN1c2nc(-c3ccccc3)c(Cl)nc2C(N)=NS1(=O)=O`, the EC100 was found to be 10 µg/mL. The value for `COc1nc2c(nc1-c1ccccc1)C(N)=NS(=O)(=O)N2C` was 0.1 µg/mL. `CN1c2nc(-c3ccc(F)cc3)c(-c3ccc(F)cc3)nc2C(N)=NS1(=O)=O` registered an EC100 of 0.3 µg/mL. As for `CCOC(=O)CN1c2nc(-c3ccccc3)c(-c3ccccc3)nc2C(N)=NS1(=O)=O`, the EC100 was 0.1 µg/mL. Turning to `CCN1c2nc(-c3ccccc3)cnc2C(N)=NS1(=O)=O`, the EC100 was over 10 µg/mL. `NC1=NS(=O)(=O)N(Cc2ccccc2)c2nc(-c3ccccc3)c(-c3ccccc3)nc21` gave an EC100 of 3 µg/mL.

`CN1c2ncc(-c3ccccc3F)nc2C(N)=NS1(=O)=O` returned an EC100 of 0.03 µg/mL. On to `Cc1ccc(-c2cnc3c(n2)N(C)S(=O)(=O)N=C3N)cc1`, for which the EC100 was over 10 µg/mL. In turn, `COc1cccc(-c2nc3c(nc2-c2cccc(OC)c2)N(C)S(=O)(=O)N=C3N)c1` yielded an EC100 of over 10 µg/mL. Consider `CCN1c2nc(-c3ccc(Cl)cc3)c(-c3ccc(Cl)cc3)nc2C(N)=NS1(=O)=O`, for which the EC100 was 3 µg/mL. With `CCOC(=O)CN1c2nc(-c3ccccc3)c(Br)nc2C(N)=NS1(=O)=O` the figure was 10 µg/mL. `CCOc1nc2c(nc1-c1ccc(Cl)cc1)C(N)=NS(=O)(=O)N2CC` gave an EC100 of 10 µg/mL. Consider `CCOC(=O)CN1c2nc(-c3ccccc3)cnc2C(N)=NS1(=O)=O`, for which the EC100 is over 10 µg/mL. `CCOc1nc2c(nc1-c1ccccc1)C(N)=NS(=O)(=O)N2C` returned an EC100 of 0.3 µg/mL. In turn, `COc1ccc(-c2nc3c(nc2-c2ccc(OC)cc2)N(C)S(=O)(=O)N=C3N)cc1` gave an EC100 of 0.001 µg/mL. With `CC(C)(C)OC(=O)CN1c2nc(-c3ccccc3)c(-c3ccccc3)nc2C(N)=NS1(=O)=O` the figure was 1 µg/mL; with `CN1c2nc(-c3ccc(Br)cc3)c(-c3ccc(Br)cc3)nc2C(N)=NS1(=O)=O`, 1 µg/mL. With `CCN1c2nc(C)c(-c3ccccc3)nc2C(N)=NS1(=O)=O` the figure was 1 µg/mL; with `CN1c2ncc(-c3ccccc3)nc2C(N)=NS1(=O)=O`, 0.3 µg/mL. As to `CCN1c2nc(-c3ccccc3)c(-c3ccccc3)nc2C(N)=NS1(=O)=O`, the EC100 turned out to be 0.3 µg/mL. As to `NC(=O)CN1c2nc(-c3ccccc3)c(-c3ccccc3)nc2C(N)=NS1(=O)=O`, the EC100 was found to be 3 µg/mL. With `CCN1c2nc(-c3ccccc3)c(Br)nc2C(N)=NS1(=O)=O` the figure was 1 µg/mL. The value for `CCN1c2nc(-c3ccccc3)c(C)nc2C(N)=NS1(=O)=O` was 1 µg/mL; that for `CCN1c2nc(-c3cccs3)c(-c3cccs3)nc2C(N)=NS1(=O)=O` was 3 µg/mL.
